{"source": "patent US20050222402A1", "about": "“Dna encoding rat bombesin receptor subtype-3 (brs-3) and uses thereof” (priority 2001, published 2005)", "key": {"rat BRS-3": {"target": "T1, rat BRS-3 (Rattus norvegicus, UniProt Q8K418)", "T1 construct": "utilized to PCR amplify full-length rat BRS-3 cDNA; expressed in transfected cells; host or cells: 293EBNA cells, pE3 expression vector", "T1 sequence (Q8K418 1-399)": "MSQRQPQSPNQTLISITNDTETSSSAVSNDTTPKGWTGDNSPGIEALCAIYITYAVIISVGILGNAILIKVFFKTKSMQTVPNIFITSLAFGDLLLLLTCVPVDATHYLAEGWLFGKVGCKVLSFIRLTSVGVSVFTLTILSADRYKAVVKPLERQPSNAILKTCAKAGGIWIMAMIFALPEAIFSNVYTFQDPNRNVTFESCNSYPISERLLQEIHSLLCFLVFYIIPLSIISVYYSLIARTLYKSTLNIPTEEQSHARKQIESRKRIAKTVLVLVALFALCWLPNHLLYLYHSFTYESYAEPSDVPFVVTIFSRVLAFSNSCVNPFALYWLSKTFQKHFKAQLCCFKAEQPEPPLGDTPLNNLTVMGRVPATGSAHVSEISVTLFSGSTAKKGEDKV", "assay": "Radioligand binding assay with 125I-dYB", "description": "(§1) Peptide dYB (dY-Q-W-A-V-(beta-A)-H-F-Nle-amide) (SEQ ID NO:10) was made by Research Genetics (Huntsville, Ala.) and custom labeled by NEN Life Science (NEN, Boston, Mass.) with a ^125I on the dY phenyl ring. The specific activity of ^125I-dYB is 2200 ci/mmol. The 293EBNA cells expressing wild type or mutant BRS-3 grown in 150-mm^2 dishes were harvested in binding buffer (50 mM HEPES, pH 7.4, 5 mM MgCl2, 0.1% BSA) and disrupted with Dounce homogenization.\n(§2) After removal of cell nuclei by a low speed centrifugation (1000×g) step, the cell membrane proteins were collected by centrifugation at 35,000×g for 20 minutes. The membrane protein concentration was determined by the Bradford method using BSA as standard.\n(§3) For binding assays, ˜20 ug membrane proteins were incubated with 0.25 nM ^125I-dYB and various concentrations of competitors in 200 ul binding buffer. After a 2 hr incubation at room temperature, the binding reaction was terminated by filtering through a GF/c filter-mate and washing the filter with binding buffer using Packard 96-well Topcount Harvester. The amount of radioligand bound to the receptor was determined by measurement of the radioactivity on the filter through liquid scintillation counting. The non-specific binding was defined as the binding in the presence of 1 uM unlabeled dYB."}, "Rat BRS-3/SQT (RB3-SQT)": {"target": "T2, Rat BRS-3/SQT (RB3-SQT) (Rattus norvegicus, UniProt Q8K418, E299Q/S300T/Y298S)", "T2 construct": "expressed in transfected cells; host or cells: 293EBNA cells, pE3 expression vector", "T2 sequence (Q8K418 1-399 Y298S/E299Q/S300T)": "T1 sequence (Q8K418 1-399) with Y298S, E299Q, S300T", "assay": "Calcium mobilization assay (FLIPR), substitution mutant", "assay_type": "cell-based", "description": "Chimeric rat/human BRS-3 genes and substitution mutant rat BRS-3 genes were constructed by using PCR mutagenesis techniques (Fong, T. in Structure-function analysis of G protein coupled receptors, J, Wess, ed, Wiley-Liss, pp. 1-20, (1999)). All the mutant and wild type BRS-3 genes were cloned into pE3 expression vector which contains CMV early promoter, hygromycin-resistance gene and OriP segment from Epstein-Bar virus.\n(§4) The functional activity of rat BRS-3 was also studied by measuring the agonist-induced calcium mobilization response using a Fluorescence Imaging Plate Reader (Molecular Devices, Sunnyvale, Calif.). Transfected 293EBNA cells were plated onto poly-D-lysine coated 96-well plates with black wall and clear bottom (Becton Dickinson, Franklin Lakes, N.J.). After 16-48 hr culture, the cells were loaded with 4 uM Fluo-3-AM fluorescent calcium-indicator dye (Molecular Probes, Eugene, OR) in assay buffer (Hank's balanced salts solution, 10 mM HEPES, pH7.4, 0.1% bovine serum albumin, 2.5 mM probenecid).\n(§5) The changes in intracellular calcium concentration, as indicated by Fluo-3 fluorescence, were immediately measured by FLIPR. Maximal changes in fluorescence over base line were used to determine agonist response.\n(§6) The EC50 values were mean±S.E. calculated from dose-response curves of 3-5 repeated experiments using FLIPR assays.\nTo determine which amino acids in the E3 loop of human BRS-3 conferred dYB activity upon rat BRS-3, several substitution BRS-3 mutants were made in which the amino acids in the E3 loop of rat BRS-3 were substituted with residues that match human BRS-3."}, "[1]": {"system": "human bombesin receptor subtypes, including human BRS-3", "details": "Pradhan et al. 1998; Ryan et al. 1998; cited from earlier work"}, "human BRS-3 [2]": {"target": "T3, human BRS-3 (Homo sapiens, UniProt P32247)", "T3 construct": "expressed in transfected cells; host or cells: 293EBNA cells, pE3 expression vector", "T3 sequence (P32247 1-399)": "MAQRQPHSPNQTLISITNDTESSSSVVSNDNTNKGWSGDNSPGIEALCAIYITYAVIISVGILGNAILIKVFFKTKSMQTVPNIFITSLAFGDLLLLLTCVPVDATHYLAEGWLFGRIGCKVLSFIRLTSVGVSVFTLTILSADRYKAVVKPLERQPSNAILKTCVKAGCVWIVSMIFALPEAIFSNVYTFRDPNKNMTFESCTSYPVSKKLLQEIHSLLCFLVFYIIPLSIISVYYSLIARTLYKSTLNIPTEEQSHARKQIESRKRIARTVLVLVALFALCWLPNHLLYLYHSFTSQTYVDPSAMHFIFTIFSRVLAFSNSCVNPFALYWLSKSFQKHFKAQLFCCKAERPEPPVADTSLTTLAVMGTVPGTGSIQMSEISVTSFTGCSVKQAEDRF", "assay": "Radioligand binding assay with 125I-dYB", "description": "as §1, §2, §3"}, "human BRS-3 [3]": {"target": "T3, human BRS-3", "assay": "Calcium mobilization assay (FLIPR), transfected 293EBNA cells", "assay_type": "cell-based", "description": "as §4, §5, §6"}}, "note": "Where a chain is given by its changes, count along the chain named. Non-standard residues stand in square brackets, D forms with d. Residues, ends and D or L forms follow the SMILES beside them. Nle = CCCC[C@H](N)C(=O)O; βAla = NCCC(=O)O", "data": [{"smiles": "CCCC[C@H](NC(=O)[C@H](Cc1ccccc1)NC(=O)[C@H](Cc1c[nH]cn1)NC(=O)CCNC(=O)[C@@H](NC(=O)[C@H](C)NC(=O)[C@H](Cc1c[nH]c2ccccc12)NC(=O)[C@H](CCC(N)=O)NC(=O)[C@H](N)Cc1ccc(O)cc1)C(C)C)C(N)=O", "note": "[dYB, [D-Tyr6-betaAla11-Phe13-Nle14] bombesin (6-14)] (H-[dY]QWAV[βAla]HF[Nle]-NH2)", "values": [{"measurement": "specific binding to rat BRS-3", "setting": "rat BRS-3", "value": "undetectable"}, {"measurement": "improvement of dYB potency in calcium mobilization", "setting": "Rat BRS-3/SQT (RB3-SQT); RB3-SQT vs rat BRS-3", "value": 5, "unit": "fold"}, {"measurement": "affinity and potency reported", "setting": "[1]", "value": "nanomolar high affinity and high potency"}]}, {"smiles": "CCCC[C@H](NC(=O)[C@H](Cc1ccccc1)NC(=O)[C@H](Cc1cnc[nH]1)NC(=O)CCNC(=O)[C@@H](NC(=O)[C@H](C)NC(=O)[C@H](Cc1c[nH]c2ccccc12)NC(=O)[C@H](CCC(N)=O)NC(=O)[C@H](N)Cc1ccc(O)cc1)C(C)C)C(N)=O", "note": "[dYB, [D-Tyr6-betaAla11-Phe13-Nle14] bombesin (6-14)] (H-[dY]QWAV[βAla]HF[Nle]-NH2)", "values": [{"measurement": "Ki", "setting": "human BRS-3 [2]", "value": "1.8 ± 0.6", "unit": "nM"}, {"measurement": "EC50", "setting": "Rat BRS-3/SQT (RB3-SQT)", "value": "390 ± 80", "unit": "nM"}, {"measurement": "EC50", "setting": "human BRS-3 [3]", "value": "1.2 ± 0.4", "unit": "nM"}]}]}
